Measurements from patent US8293240B2, “Method of treating drug-resistant cancer” (The Regents of the University of Colorado, priority 2004, dated 2012).

Key:
B16F1 melanoma cells [1] = assay: intracellular reactive intermediates (DCFDA) in B16F1 melanoma cells; assay type: cell-based, mouse; details: B16F1, 48 hours, FIG. 19
Procedure: (§1) Metabolic Activity Assay. Cells were prepared as previously described. The specific metabolic dye was added and mixed into the cell suspension. This plate was then placed into the 37° incubator for a 20-minute incubation. After incubation, the cells were centrifuged at 300×g for 5 minutes, and the supernatant was removed. The cells were then washed once with PBS/2.5% FBS and transferred into flow cytometric tubes containing 500 μL of PBS/2.5% FBS for analysis.
5-(and -6)-Chloromethyl-2′,7′-dichlorodihydrofluorescein diacetate (CMH2DCFDA) (Molecular Probes). One vial of DCFda provides 10 tests and contains 50 μg. This is unstable and can't be stored. Therefore, each vial was opened and 43 μL of DMSO was added. […]
(§2) B16F1 melanoma cells were cultured at a concentration of 0.5 to 1 million cells per ml. Cells were harvested and analyzed by flow cytometry. […] Five thousand cells were assessed for forward scatter (FS), as a function of cell size, versus side scatter (SS), as a function of cellular granularity. […]
(§3) B16F1 melanoma cells of Example 12 were untreated or treated with etomoxir at the indicated concentrations for 48 hours. Cells were harvested, stained with DCFDA as described in Materials and Methods, and analyzed by flow cytometry. The value of DCFDA was then calculated as described in Materials and Methods.

[2] = tested on: RD cells (rhabdomyosarcoma cells-not drug resistant); assay: percent death of RD cells (flow cytometry, live versus dead); assay type: cell-based
Procedure: The cells were cultured at a concentration of 0.5 to 1 million cells per ml. Cells were untreated or treated with or 2-deoxy-D-glucose and/or etomoxir and/or antibodies to UCP2 and used at dilutions or concentrations as indicated on the figure. The cells were cultured in the presence or absence of etomoxir at 100 micrograms/ml for 24 hours followed by treatment with antibody as indicated for an additional 24 or 48 hours (i.e. totals of 48 hours or 72 hours respectively). Cells were harvested and analyzed by flow cytometry. Each dot on the dot plot represents one cell. Five thousand cells were assessed for forward scatter (FS), as a function of cell size, versus side scatter (SS), as a function of cellular granularity. The upper elipse represents live cells by these criterion and the lower elipse in each dot plot represents the dead cells.
Gating is a tool provided by Cell Quest software and allows for the analysis of a certain population of cells. Gating around both the live and dead cell populations gave a percent of the cell numbers that was in each population. After the gates were drawn, a percent value of dead cells was calculated by taking the number of dead cells divided by the number of total cells and multiplying by one hundred.
Referring to FIGS. 29 and 30, RD cells (rhabdomyosarcoma cells-not drug resistant), cultured as described above under “Materials and Methods” were untreated or treated with etomoxir, with 2-deoxy-D-glucose, or with a combination of etomoxir and 2-deoxy-D-glucose, at concentrations indicated in FIG. 29 for 24 hours. Cells were harvested and analyzed by flow cytometry.
Referring to FIGS. 33 and 34, RD cells, cultured as described in Example 22, were untreated or treated with etomoxir, with 2-deoxy-D-glucose, or with a combination of etomoxir and 2-deoxy-D-glucose, at concentrations indicated in FIG. 33 for 48 hours. Cells were harvested and analyzed by flow cytometry.
Referring to FIGS. 37 and 38, RD cells, cultured as described in Example 22, were treated with anti-UCP2 antibody and otherwise untreated or treated simultaneously with etomoxir, 2-deoxy-D-glucose, or both, at concentrations indicated in FIG. 37 for 48 hours. Cells were harvested and analyzed by flow cytometry.

[3] = tested on: HL60 MDR human leukemia cells; assay: percent death of HL60 MDR cells (flow cytometry, live versus dead); assay type: cell-based
Procedure: Dot plots as a function of live versus dead cells. The cells were cultured at a concentration of 0.5 to 1 million cells per ml. Cells were untreated or treated with or 2-deoxy-D-glucose and/or etomoxir and/or antibodies to UCP2 and used at dilutions or concentrations as indicated on the figure. The cells were cultured in the presence or absence of etomoxir at 100 micrograms/ml for 24 hours followed by treatment with antibody as indicated for an additional 24 or 48 hours (i.e. totals of 48 hours or 72 hours respectively). Cells were harvested and analyzed by flow cytometry. Each dot on the dot plot represents one cell. Five thousand cells were assessed for forward scatter (FS), as a function of cell size, versus side scatter (SS), as a function of cellular granularity. The upper elipse represents live cells by these criterion and the lower elipse in each dot plot represents the dead cells.
Statistical Analysis, Percents, and Geometric Mean Values Percents. Gating is a tool provided by Cell Quest software and allows for the analysis of a certain population of cells. Gating around both the live and dead cell populations gave a percent of the cell numbers that was in each population. After the gates were drawn, a percent value of dead cells was calculated by taking the number of dead cells divided by the number of total cells and multiplying by one hundred.
HL60 MDR human leukemia cells were cultured as described above under “Materials and Methods”. Cells were untreated or treated with etomoxir, with 2-deoxy-D-glucose, or with a combination of etomoxir and 2-deoxy-D-glucose, at concentrations indicated in FIG. 27 for 24 hours. Cells were harvested and analyzed by flow cytometry.
Referring to FIGS. 31 and 32, HL60 MDR cells, cultured as described in Example 21, were untreated or treated with etomoxir, with 2-deoxy-D-glucose, or with a combination of etomoxir and 2-deoxy-D-glucose, at concentrations indicated in FIG. 31 for 48 hours. Cells were harvested and analyzed by flow cytometry.
Referring to FIGS. 35 and 36, HL60 MDR cells, cultured as described in Example 21, were treated with anti-UCP2 antibody and otherwise untreated or treated simultaneously with etomoxir, 2-deoxy-D-glucose, or both, at concentrations indicated in FIG. 35 for 48 hours. Cells were harvested and analyzed by flow cytometry.

L1210 DDP cells = assay: mitochondrial membrane potential (MitoTracker), L1210 DDP; assay type: cell-based; details: 24 hours of incubation, FIG. 11
Procedure: (§4) Flow Cytometry. Cells were harvested, counted, and resuspended at 10^6 cells/100 μl of PBS containing 2.5% fetal calf serum in preparation for flow cytometric analysis. Cells were stained for intracellular H202 using 6-carboxy-2′,7′-dichlorodihydrofluorescein diacetate (DCF-DA, Molecular Probes, Eugene, Oreg.). Briefly, cells were incubated at 37° with 1 mM DCF-DA for 20 minutes, washed twice in PBS containing 2.5% fetal calf serum and analyzed flow cytometrically. Mitochondrial membrane potential was assessed using Mitotracker Red (CM-H2XROS, Molecular Probes, Eugene, Oreg.). […] The cells were incubated at 37° for 20 minutes, washed twice in PBS containing 2.5% fetal calf serum and analyzed flow cytometrically. Data were acquired on a Coulter Elite Epics or Excel flow cytometer (Coulter, Hialeah, Fla.) and analyzed with CellQuest software, (Becton Dickinson, San Jose, Calif.). […] Each sample population was classified for cell size (forward scatter) and complexity (side scatter), gated on a population of interest and evaluated using 5,000 cells. […]
(§5) We measured the effects of etomoxir on metabolism by measuring mitochondrial membrane potential with a fluorescent dye (Mitotracker Red, Molecular Probes, Eugene, Oreg.) which fluoresces as a function of mitochondrial potential. […]

B16F1 melanoma cells [4] = assay: cell surface Fas (CD95) expression on B16F1 melanoma cells; assay type: cell-based, mouse; details: 48 hours
Procedure: Cell Surface Staining. Non-permeabilized cells were stained with antibodies to the cell surface receptors Fas (CD95) (Pharmingen) or with antibodies to uncoupling proteins (anti-UCP2 antibody) (Alpha Diagnostic International). Antibodies for both the isotype control and actual stain were added to the cell suspension, mixed, and then placed on ice for and incubation of 25 minutes in the dark. Subsequently the cells were centrifuged at 300×g for 5 minutes and the supernatant removed. The cells were washed one time with 100 μL of PBS/2.5% FBS and then transferred into flow cyotmetric tubes containing 500 μL of PBS/2.5% FBS for analysis.
B16F1 melanoma cells were cultured at a concentration of 0.5 to 1 million cells per ml. Cells were harvested and analyzed by flow cytometry. Dot plots are shown in FIG. 15 as functions of live versus dead cells. Each dot on the dot plot represents one cell. Five thousand cells were assessed for forward scatter (FS), as a function of cell size, versus side scatter (SS), as a function of cellular granularity. […]
Referring to FIGS. 17 and 18, B16F1 melanoma cells of Example 12 were untreated or treated with etomoxir at the indicated concentrations for 48 hours. Cells were harvested, stained with fluorochrome conjugated anti-Fas antibody (Pharmingen) and analyzed by flow cytometry.

L1210 cells = assay: DCFDA staining (reactive intermediates), L1210; assay type: cell-based; details: L1210, 24 hours of incubation, FIG. 12A
Procedure: as §4, §5

B16F1 melanoma cells [5] = assay: mitochondrial membrane potential (Mitotracker Red) in B16F1 melanoma cells; assay type: cell-based, mouse; details: B16F1, 48 hours, FIG. 20
Procedure: as §1
MitoTracker Red CM-H2XROS (Molecular Probes). One vial of MitoTracker Red provides 10 tests and contains 50 μg. This is unstable and can't be stored. Therefore, when each vial was opened, 43 μL of Dimethysulfoxide (DMSO) were added. […]
as §2
as §3, with “with Mitotracker Red (Molecular Probes)” for “with DCFDA”, “of Mitotracker Red” for “of DCFDA”

CCOC(=O)C1(CCCCCCOc2ccc(Cl)cc2)CO1 (stereo not shown) [etomoxir, 2-(6-(4-chlorophenoxy)-hexyl)-oxirane-2-carboxylic acid ethyl ester]
reactive oxygen species as measured by DCFDA (B16F1 melanoma cells [1]): dose dependent increase
percent of cell deaths ([2]; RD cells after 24 hours): 57%
percent of cell deaths ([2]; RD cells after 48 hours): 64%
percent of cell deaths ([3]; HL60 MDR cells after 24 hours): 11%
percent of cell deaths ([3]; HL60 MDR cells after 48 hours): 14%
mitochondrial membrane potential (MitoTracker) (L1210 DDP cells): increase the mitochondrial membrane potential
cell surface Fas expression (B16F1 melanoma cells [4]; B16F1 dead cell population, FIG. 18): dose dependent increase in cell surface Fas expression
cell surface Fas expression (B16F1 melanoma cells [4]; B16F1 live cell population, FIG. 17): dose dependent increase in cell surface Fas expression
free radicals (reactive intermediates), DCFDA staining (L1210 cells): increase in free radicals
mitochondrial membrane potential as measured by Mitotracker Red (B16F1 melanoma cells [5]): increase in mitochondrial membrane potential
